Test results taken from article PMC6264553, “Synthesis and In Vitro Protein Tyrosine Kinase Inhibitory Activity of Furan-2-yl(phenyl)methanone Derivatives” (Molecules, 2011).

Key:
[1] = target: Protein Tyrosine Kinase (PTK); assay: PTK inhibitory activity, ELISA tyrosine kinase assay with poly-Glu-Tyr substrate; type: biochemical, rat; conditions: for IC50: tyrosine kinase extracted from rat brain tissue, means of three experiments, NA = not active at 5 μg/mL, read-out: Protein Tyrosine Kinase (PTK) inhibition activity, IC50; for PTK inhibitory activity (in words): in vitro, SAR discussion
Description: The activities of PTKs were tested using ELISA. The tyrosine kinase was extracted from brain tissue of rat, and microtiter plates were coated using poly-Glu-Tyr (PGT) as substrates. If the tyrosine residues of PGT were phosphorylated by PTKs, they bound to phospho-specific monoclonal antibody that was labeled specifically with HRP. The absorbance was measured to reflect the activity of PTK.
The phosphorylation assays were performed at 37 °C in a final volume of 40 µL tyrosine kinase. The concentrations of PTKs used to construct calibration curves were as follows: 600, 500, 400, 300, 200 and 100 × 10^−7 U/mL for PTK. A concentration of 500 × 10^−7/μL was used for each inhibitor. Phosphorylation reactions were initiated with the addition of 40 mM ATP (10 μL) into each vessel, and the plate was incubated at 37 °C for 30 min. After completion of reaction, liquid was decanted and the vessels were washed four times with Tween-PBS. One hundred microliters of blocking solution was added to the vessels and incubated at 37 °C for 30 min. After washing the plate with Tween-PBS, anti-phosphotyrosine (50 μL) was added to the vessels and incubated at 37 °C for 30 min. The reaction liquid was decanted and the remaining solution was removed by rinsing four times with Tween-PBS. One hundred μL of HRP coloring agent was added and incubated at 37 °C for 15 min. The reaction was terminated by addition of 1 N sulfuric acid (100 μL /well). The absorbance of the reaction was measured at 450 nm on a microplate reader.

Row | melting point | IC50 [1] | PTK inhibitory activity (in words) [1] | Structure (SMILES)
1 | 98 to 100 °C | – | – | COc1ccc(C(=O)c2ccco2)cc1OC [Compound 3a, (3,4-Dimethoxyphenyl)(furan-2-yl)methanone]
2 | 168 to 170 °C | – | – | COc1ccc(C(=O)c2ccco2)c(OC)c1O [Compound 3b, Furan-2-yl(3-hydroxy-2,4-dimethoxyphenyl)methanone]
3 | 66 to 70 °C | – | – | COc1ccc(Br)cc1C(=O)c1ccco1 [Compound 3c, (5-Bromo-2-methoxyphenyl)(furan-2-yl)methanone]
4 | 58 to 60 °C | – | – | COc1ccc(C(=O)c2ccco2)cc1 [Compound 3d, Furan-2-yl(4-methoxyphenyl)methanone]
5 | 132 to 134 °C | 4.66 µM | – | O=C(c1ccc(O)c(O)c1)c1ccco1 [Compound 4a, (3,4-Dihydroxyphenyl)(furan-2-yl)methanone]
6 | – | 6.42 µM | – | O=C(c1ccco1)c1ccc(O)c(O)c1O [Compound 4b, Furan-2-yl(2,3,4-trihydroxyphenyl)methanone]
7 | 88 to 90 °C | – | – | O=C(c1ccco1)c1cc(Br)ccc1O [Compound 4c, (5-Bromo-2-hydroxyphenyl)(furan-2-yl)methanone]
8 | 98 to 100 °C | – | – | COc1ccc(Br)cc1C(=O)c1ccc(Br)o1 [Compound 7b, (5-Bromo-2-methoxyphenyl)(5-bromofuran-2-yl)methanone]
9 | 132 to 134 °C | 5.31 µM | – | O=C(c1ccc(Br)o1)c1ccc(O)c(O)c1O [Compound 8a, (5-Bromofuran-2-yl)(2,3,4-trihydroxyphenyl)methanone]
10 | 82 to 84 °C | – | – | O=C(c1ccc(Br)o1)c1cc(Br)ccc1O [Compound 8b, (5-Bromo-2-hydroxyphenyl)(5-bromofuran-2-yl)methanone]
11 | – | 2.72 µM | strongest activity | O=C(c1ccc(O)c(O)c1)c1ccc(Br)o1 [Compound 8c, (5-Bromofuran-2-yl)(3,4-dihydroxyphenyl)methanone]
12 | 107 to 109 °C | – | – | COc1ccc(C(=O)c2cc(Br)c(Br)o2)cc1O [Compound 13, (4,5-Dibromofuran-2-yl)(3-hydroxy-4-methoxyphenyl)methanone]
13 | 184 to 186 °C | – | no activity | O=C(c1ccc(O)c(O)c1)c1cc(Br)c(Br)o1 [Compound 14, (4,5-Dibromofuran-2-yl)(3,4-dihydroxyphenyl)methanone]
14 | 64 to 66 °C | – | – | COc1cccc(OC)c1C(=O)c1ccco1 [Compound 17b, (2,6-Dimethoxyphenyl)(furan-2-yl)methanone]
15 | 64 to 66 °C | 13.2 µM | – | O=C(c1ccco1)c1cccc(O)c1O [Compound 18a, (2,3-Dihydroxyphenyl)(furan-2-yl)methanone]
16 | 66 to 68 °C | 12.7 µM | – | O=C(c1ccco1)c1c(O)cccc1O [Compound 18b, (2,6-Dihydroxyphenyl)(furan-2-yl)methanone]
17 | 96 to 98 °C | – | – | COc1c(Br)c(C(=O)c2ccco2)c(Br)c(OC)c1OC [Compound 21b, (2,6-Dibromo-3,4,5-trimethoxyphenyl)(furan-2-yl)methanone]
18 | 80 to 82 °C | – | – | COc1cc(C(=O)c2ccco2)c(Cl)c(OC)c1OC [Compound 21c, (2-Chloro-3,4,5-trimethoxyphenyl)(furan-2-yl)methanone]
19 | 102 to 104 °C | – | – | COc1c(O)c(C(=O)c2ccco2)cc(Br)c1Br [Compound 21d, (4,5-Dibromo-2-hydroxy-3-methoxyphenyl)(furan-2-yl)methanone]
20 | 100 to 102 °C | – | – | O=C(c1ccc(O)c(Br)c1)c1ccco1 [Compound 22a, (3-Bromo-4-hydroxyphenyl)(furan-2-yl)methanone]
21 | 148 to 150 °C | – | no activity | O=C(c1ccco1)c1c(Br)c(O)c(O)c(O)c1Br [Compound 22b, (2,6-Dibromo-3,4,5-trihydroxyphenyl)(furan-2-yl)methanone]
22 | 150 to 152 °C | 4.62 µM | – | O=C(c1ccco1)c1cc(O)c(O)c(O)c1Cl [Compound 22c, (2-Chloro-3,4,5-trihydroxyphenyl)(furan-2-yl)methanone]
23 | 138 to 140 °C | 9.56 µM | – | O=C(c1ccco1)c1cc(Br)c(Br)c(O)c1O [Compound 22d, (4,5-Dibromo-2,3-dihydroxyphenyl)(furan-2-yl)methanone]
